# Measured values published in patent US8278473B2, “Alpha, beta-unsaturated imidate compound and pesticidal composition containing the same” (Sumitomo Chemical Company, Limited, priority 2007, dated 2012).
# System: Haemaphysalis longicornis
# Assay: Test Example 10: Haemaphysalis longicornis, treated filter paper pouch
# Type: in vivo
# Details: 0.5 mg compound on filter paper 5×10 cm; non-blood sucking nymphal ticks; after 2 days
# Method: In 1 mL of acetone, 0.5 mg of any one of the present compounds 1 to 48 was dissolved, and the solution was spread uniformly on one side of a filter paper (TOYO No. 2; 5×10 cm). After dried, the filter paper was folded into two, and the sides were clipped to make a pouch. Into the pouch, tested ticks (Haemaphysalis longicornis, non-blood sucking nymphal ticks, 10 ticks in a group) were placed. The pouch was clipped and sealed. After 2 days, the number of dead ticks was counted.
row,SMILES,death rate [%]
1,"CC(=COc1cccc(C)c1)C(=Nc1ccccc1)Oc1cc(C)cc(C)c1 [Compound 182, 3,5-dimethylphenyl 2-methyl-3-(3-methylphenyloxy)-N-phenyl-2-propenimidate]",100
2,"CCc1cccc(OC(=Nc2ccc(C)cc2)C(C)=COc2ccc(OC)cc2)c1 [Compound 272, 3-ethylphenyl 3-(4-methoxyphenyloxy)-2-methyl-N-(4-methylphenyl)-2-propenimidate]",100
3,"COc1ccccc1OC=C(C)C(=Nc1ccc(C)cc1)Oc1cccc(C)c1 [Compound 240, 3-methylphenyl 3-(2-methoxyphenyloxy)-2-methyl-N-(4-methylphenyl)-2-propenimidate]",100
4,"CC(=COc1ccc(Oc2ccccc2)cc1)C(=Nc1ccccc1)Oc1ccccc1 [Compound 291, phenyl 2-methyl-3-(4-phenoxyphenyloxy)-N-phenyl-2-propenimidate]",100
5,"CC(=COc1ccc(C)cc1)C(=Nc1ccc(C)cc1)Oc1cccc(C)c1 [Compound 210, 3-methylphenyl 2-methyl-N-(4-methylphenyl)-3-(4-methylphenyloxy)-2-propenimidate]",100
6,"CCc1ccc(OC=C(C)C(=Nc2ccccc2)Oc2ccccc2)cc1 [Compound 229, phenyl 3-(4-ethylphenyloxy)-2-methyl-N-phenyl-2-propenimidate]",100
7,"CC(=COc1cccc(C)c1)C(=Nc1ccccc1)Oc1cccc(C(C)C)c1 [Compound 178, 3-isopropylphenyl 2-methyl-3-(3-methylphenyloxy)-N-phenyl-2-propenimidate]",100
8,"COc1ccc(N=C(Oc2ccccc2)C(C)=COc2ccccc2OC)cc1 [Compound 245, phenyl N-(4-methoxyphenyl)-3-(2-methoxyphenyloxy)-2-methyl-2-propenimidate]",100
9,"CCOc1cccc(OC(=Nc2ccccc2)C(C)=COc2ccccc2OC)c1 [Compound 237, 3-ethoxyphenyl 3-(2-methoxyphenyloxy)-2-methyl-N-phenyl-2-propenimidate]",100
10,"CC(=COc1ccc(C)cc1)C(=Nc1ccccc1)Oc1ccccc1C [Compound 194, 2-methylphenyl 2-methyl-3-(4-methylphenyloxy)-N-phenyl-2-propenimidate]",100
11,"CC(=COc1ccc(C(C)C)cc1)C(=Nc1ccccc1)Oc1ccccc1 [Compound 230, phenyl 3-(4-isopropylphenyloxy)-2-methyl-N-phenyl-2-propenimidate]",100
12,"CCc1cccc(OC(=Nc2ccc(C)cc2)C(C)=COc2cccc(C)c2)c1 [Compound 185, 3-ethylphenyl 2-methyl-N-(4-methylphenyl)-3-(3-methylphenyloxy)-2-propenimidate]",100
13,"COc1ccc(N=C(Oc2cccc(C)c2)C(C)=COc2cccc(C)c2)cc1 [Compound 189, 3-methylphenyl N-(4-methoxyphenyl)-2-methyl-3-(3-methylphenyloxy)-2-propenimidate]",100
14,"COc1cccc(OC=C(C)C(=Nc2ccc(C)cc2)Oc2cccc(C)c2)c1 [Compound 261, 3-methylphenyl 3-(3-methoxyphenyloxy)-2-methyl-N-(4-methylphenyl)-2-propenimidate]",100
15,"COc1ccc(N=C(Oc2cccc(OC)c2)C(C)=COc2ccc(OC)cc2)cc1 [Compound 279, 3-methoxyphenyl N-(4-methoxyphenyl)-3-(4-methoxyphenyloxy)-2-methyl-2-propenimidate]",100
16,"CC(=COc1ccc(C)cc1)C(=Nc1ccccc1)Oc1cccc(C)c1 [Compound 195, 3-methylphenyl 2-methyl-3-(4-methylphenyloxy)-N-phenyl-2-propenimidate]",100
17,"COc1ccc(N=C(Oc2cccc(C)c2)C(C)=COc2ccccc2OC)cc1 [Compound 246, 3-methylphenyl N-(4-methoxyphenyl)-3-(2-methoxyphenyloxy)-2-methyl-2-propenimidate]",100
18,"COc1cccc(OC(=Nc2ccc(C)cc2)C(C)=COc2ccccc2OC)c1 [Compound 242, 3-methoxyphenyl 3-(2-methoxyphenyloxy)-2-methyl-N-(4-methylphenyl)-2-propenimidate]",100
19,"CC(=COc1ccc(C)c(C)c1)C(=Nc1ccccc1)Oc1ccccc1 [Compound 292, phenyl 3-(3,4-dimethylphenyloxy)-2-methyl-N-phenyl-2-propenimidate]",100
20,"COc1ccc(OC=C(C)C(=Nc2ccc(C)cc2)Oc2cccc(C)c2)cc1 [Compound 270, 3-methylphenyl 3-(4-methoxyphenyloxy)-2-methyl-N-(4-methylphenyl)-2-propenimidate]",100
